# Key:
# Type in all cases: cell-based, human
# VMAT2 = experiment: Western blot of VMAT2 expression in M17 cells
# Excerpt: BE(2)-M17 cells were used to investigate the interaction between G-substrate and α-synuclein, a known risk factor and possible causative agent in Parkinson's disease. […] Likewise, VMAT2 expression was reduced in naïve M17 cells following the reduction in endogenous G-substrate using siRNA (FIG. 10C).
# M17 cells transiently and stably overexpression α-synuclein were transfected using the G-substrate lentiviral vector described above.
# The PP2A regulation of VMAT 2 was investigated in M17 cells. PP2A levels were reduced using RNAi. […] The effect of PP2A inhibition was not generalized to other dopaminergic markers tested.
# (§1) Cells and tissue samples were collected from and suspended in lysis buffer containing: 50 mM Tris-HCl, 0.15 M NaCl, 0.32 M sucrose, 1.0 mM EDTA, and 1% NP-40. In addition, phosphatase inhibitors I and II (1:100) and protease inhibitors (1:100) were added fresh prior to cell lysis (Sigma-Aldrich, P2850, P5276, and P8340 respectively). Following cell lysis, the homogenate was centrifuged, a portion of the supernatant was reserved for protein determination (BCA Assay, Pierce, Rockford, Ill.) and the remaining was stored at −20° C. 20 μg (in vitro cell preps) and 50 μg (tissue dissections) of solubilized protein were mixed 1:1 with sample buffer and boiled for 5 min. The samples and molecular weight standards were separated using the Criterion precast 10% SDS-polyacrylamide gel system (Bio-Rad, Hercules, Calif.). After electrophoresis, the proteins were electrically transferred to PVDF membranes at 100 V for 30 min. After transfer, blots were incubated in Tris-buffered saline with 0.1% Tween 20 (TBS-T) containing 5% BSA. Subsequently, blots were incubated with the following antibodies at 4° C. overnight (1:1000 unless otherwise stated): phospho-Akt (ser473), phospho-GSK3β (ser9), phospho-erk1/2, and phospho-p38 (Cell Signaling Technologies, Danvers, Mass.). HRP-conjugated secondary antibodies were then applied and immunoreactive bands were visualized with chemiluminescence (Amersham Biosciences, Arlington Heights, Ill.) and exposed onto film. Immunoblots were then stripped and re-probed for the expression of the total protein (Cell Signaling) and beta-actin (1:10 000) (Abcam) to serve as a loading control. Optical density analysis (NIH image) was used to determine the relative abundance of protein in each sample. The optical densities of the phospho epitopes were standardized to their respective total proteins and this value was used in the statistical analyses.
# PP2A = PP2A activity assay (immunoprecipitated PP2A, phosphopeptide, Malachite Green); details: BE(2)-M17 cells exposed to 50 μM 6-OHDA for 2 hours; versus control cells
# Method: PP2A activity was measured in control BE(2)-M17 cells at various incubation times (t=0, 1, 2, 5 and 8 hr) after exposure to 50 μM 6-OHDA. […] Control, wild-type, and T123A G-substrate-expressing cells were then exposed to 50 μM 6-OHDA for 2 hours before measurement of PP2A activity.
# PP2A activity was measured using a non-radioactive kit according to the manufacturer's instruction (Upstate Biotechnologies, Lake Placid, N.Y.). After 50 μM 6-OHDA exposure with various times, cells were harvested in 20 mM imidazole-HCl, 2 mM EDTA, 2 mM EGTA, pH7 with a protease inhibitor cocktail (Sigma). Protein concentrations of the lysates were measured using BCA assay (Pierce) and 500 μg of protein was immunoprecipitated using an anti-PP2A catalytic subunit antibody and protein A-Sepharose beads. Immunoprecipitated PP2A was then incubated with phosphopeptide (K-R-pT-I-R-R (SEQ ID NO: 8)) for 10 min at 37° C. Dephosphorylation of the phosphopeptide was assayed spectrophotometrically at 650 nm using Malachite Green.
# Akt, GSK3β, ERK1/2, p38 = experiment: Western blot of phosphorylation levels of PP2A targets in BE(2)-M17 cells
# Excerpt: As described herein, G-substrate overexpression altered the phosphorylation levels of PP2A targets known to play critical roles in cell survival. Akt, GSK3β, and ERK1/2 are known to promote cell survival when phosphorylated (Song et al., J. Cell. Mol. Med. 9: 59-71, 2005; Chen et al., 2004; Ray et al., J. Biol. Chem. 280: 31091-31100, 2005; Tamura et al., FEBS Lett. 569: 249-255, 2004) and phosphorylated p38 is known to mediate cell death in dopaminergic neurons exposed to various toxins including 6-OHDA (Choi et al., J. Biol. Chem. 279: 20451-20460, 2004; Ruano et al., Neurosci. 140: 1157-1168, 2006; Ou et al., Proc. Natl. Acad. Sci. USA 103: 10923-10928, 2006). To test whether changes in phosphorylation levels of these proteins are G-substrate-dependent, both control and G-substrate-expressing cells were exposed to 50 μM 6-OHDA for various durations (t=0, 2, 5 and 10 hr). BE(2)-M17 cells were prepared and cultured as described above. The level of the total and phosphorylated forms of these PP2A substrates was detected by Western blot analysis (FIGS. 7A, 7C, 7E, and 7H).
# as §1
substance,measurement,setting,value
G-substrate: human wild type G-substrate (SEQ ID NO.: 1) overexpressed from a lentiviral vector,VMAT2 expression in α-synuclein overexpressing cells,VMAT2; M17 cells transiently and stably overexpressing α-synuclein,reversing the α-synuclein-induced loss of VMAT2
same,VMAT2 expression,VMAT2; naïve M17 cells,significant increase
same,PP2A activity in G-substrate-expressing cells,PP2A,significant reduction
same,level of phosphorylated p38,"Akt, GSK3β, ERK1/2, p38; G-substrate overexpression, 50 μM 6-OHDA",did not alter
same,level of pAkt,"Akt, GSK3β, ERK1/2, p38; G-substrate overexpression, basal and 2, 5 and 10 hours after 50 μM 6-OHDA",significant increase
same,basal level of pGSK3β,"Akt, GSK3β, ERK1/2, p38; G-substrate-overexpressing cells, basal",increased
same,level of pErk2,"Akt, GSK3β, ERK1/2, p38; only at 10 hours following 50 μM 6-OHDA, no basal level increase",increased
same,level of pErk1,"Akt, GSK3β, ERK1/2, p38; similar trend as pErk2, 50 μM 6-OHDA",did not reach the statistical significance
